The subject of data set [1] is breast cancer cell line panel. The experiment in a line: Pharmacologic inhibition assay (Crystal Violet, mean percent viability). The data set is classed as cell-based, human. The procedure:
All cell lines were obtained and maintained as previously described^15. Independent pharmacologic inhibition assays were conducted in triplicate for each cell line. Cells were seeded at 20,000 per well in a 24-well plate. After 24 hours, cells were treated in triplicate with indicated concentrations of: DMSO, temozolomide (SIGMA ALDRICH™, T2577), or AZD-2281 (SELLECK CHEMICALS™, S1060). After five days of incubation, cells were fixed in 4% formaldehyde and stained with 1% Crystal Violet (SIGMA ALDRICH™, C0775) for ten minutes at room temperature. Cells were then washed to remove unincorporated dye and plates were inverted to dry overnight. Incorporated dye was extracted with 10% acetic acid and OD595 measurements were obtained within a linear range. Treated cells were normalized to the vehicle-treated control to obtain mean percent viability.

For data set [2] the following is noted: clinical use, literature refs 34-38; cited from earlier work.

The values below come from patent US20170002421A1, “METHODS AND ASSAYS FOR DETERMINING REDUCED BRCA1 PATHWAY FUNCTION IN A CANCER CELL” (THE GENERAL HOSPITAL CORPORATION, priority 2013, published 2017).

Turning to `O=C(c1cc(Cc2n[nH]c(=O)c3ccccc23)ccc1F)N1CCN(C(=O)C2CC2)CC1` [olaparib], the “inhibition (viability) in combination” value in data set [1] (40 nM olaparib combined with 100 uM temozolomide, breast cancer cell line panel (FIG. 4A, lower panel)) is “exerts inhibition”. Further, the “reduction in viability, single administration” value in data set [1] (either drug alone, seven of the tested cell lines with Garnett et al. expression data (FIG. 4B, top and middle panel)) is “did not demonstrate a significant reduction in viability”. In addition, in data set [1] (olaparib alone, 40 nM, five days incubation, breast cancer cell line panel (FIG. 4A, middle panel)), the “inhibitory effects (viability)” value was “does not demonstrate inhibitory effects alone”. Moreover, in data set [2], the “crossing the blood/brain barrier” value was “evidence of crossing the blood/brain barrier”.
As for `Cn1nnc2c(C(N)=O)ncn2c1=O` [temozolomide], the “crossing the blood/brain barrier” value in data set [2] was “can cross the blood/brain barrier”.
